Laboratory results published in patent US20250326771A1, “PIPERAZINE DERIVATIVES USEFUL IN HIV THERAPY” (VIIV HEALTHCARE COMPANY, priority 2022, published 2025).
Where two headings read alike, the source gives them in different places.

How the values were obtained:
[1] = test system: Jurkat HIV-luciferase clones; experiment: Jurkat latency reversal assay; type: cell-based; details: Homo sapiens, 48 h; Jurkat latency reversal assay potency; read-out: Jurkat pEC50 (converted)
How it was run: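 Pooled Jurkat clones C16, 115 and N6, each carrying one or two integrated HIV-luciferase proviruses and kept in 500 nM EFV, were exposed to 3-fold, 14-point compound titrations in duplicate (10 μM top, 0.5% DMSO) for 48 h at 37° C. Luciferase luminescence was fitted by four-parameter logistic regression for EC50 and maximal percent activation versus vehicle.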

[2] = biological target: XIAP-BIR3 (Homo sapiens (Human), UniProt P98170); experiment: BIR binding assay (FRET competition), XIAP BIR3; details: for XIAP BIR3 vs BIR2 separation window: fold separation (FS) for XIAP
Sequence of XIAP-BIR3 (P98170 241-356): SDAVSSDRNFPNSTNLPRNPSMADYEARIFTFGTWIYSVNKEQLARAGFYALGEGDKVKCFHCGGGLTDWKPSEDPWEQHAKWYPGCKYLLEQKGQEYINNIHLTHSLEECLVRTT
How it was run: (§1)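 615/665 nm FRET ratio. Compound, His-domain and 200 nM AF647-SMAC peptide incubated 60 min, then 2 nM Eu-W1024 for 30 min. Domains: cIAP1-BIR3 50 nM; XIAP-BIR3 100 nM; cIAP1-BIR2, cIAP2-BIR2 325 nM each. 15-pt 3-fold series; variable-slope IC50.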

[3] = biological target: XIAP-BIR2 (Homo sapiens (Human), UniProt P98170); experiment: BIR binding assay (FRET competition), XIAP BIR2
Sequence of XIAP-BIR2 (P98170 124-240): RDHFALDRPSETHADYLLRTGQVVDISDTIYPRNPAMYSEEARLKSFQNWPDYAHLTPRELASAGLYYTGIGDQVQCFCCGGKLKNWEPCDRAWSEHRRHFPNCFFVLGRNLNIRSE
Procedure: The BIR domain binding assays are FRET based competition assays that utilize His-tagged versions of each of the BIR2 and BIR3 domains from cIAP1, cIAP2, and XIAP (each domain assayed separately) each at a custom optimal concentration and a probe, 200 nM SMAC/DIABLO peptide AVPIAQKSE labelled with AlexaFluor647 (part #crb 1110326h, Discovery Peptides). The assay is conducted in 50 mM HEPES, […], 1 mM CHAPS, 5% Glycerol, 1 mM DTT, in dI water with a final pH of 7.4 and final volume of 20 uL. Final protein domain concentrations are: 50 nM cIAP1-BIR3 (Part #APT-11-370 Reaction Biology), 100 nM XIAP-BIR3 (Part #APT-11-351 Reaction Biology), 200 nM XIAP-BIR2 (Part #APT-11-470 Reaction Biology), 325 nM cIAP2-BIR2 (Part #APT-11-489 Reaction Biology), 50 nM cIAP2-BIR3 (Part #APT-11-372 Reaction Biology), 325 nM cIAP1-BIR2 (Part #APT-11-487 Reaction Biology). Compounds were plated using a HP Tecan D300 printer in a final total volume of 202 nl and DMSO concentration normalized across the 15-point, 3-fold dilution series. Peptide and probe were prepared at 2× relative to the concentrations above in binding buffer, 10 uL added to the prepared compound plates, and incubated for 60 minutes. LANCE Eu-W1024 (part #AD0401 Perkin Elmer #, vendor) was prepared at 2× concentration in binding buffer for final concentration of 2 nM, 10 uL added to each well, and plates incubated for 30 minutes. Plates were read on an ENVISION multifunction plate reader with […] laser excitation to obtain the 615 nm/665 nm emission ratio as indicative of probe:protein proximity. Data was analyzed using GraphPad PRISM and curves fit using log(inhibitor) vs. response—Variable slope (four […] method to obtain IC50 and pIC50 values.

[4] = biological target: cIAP1-BIR2 (Homo sapiens (Human), UniProt Q13490); experiment: BIR binding assay (FRET competition), cIAP1 BIR2
Sequence of cIAP1-BIR2 (Q13490 173-257): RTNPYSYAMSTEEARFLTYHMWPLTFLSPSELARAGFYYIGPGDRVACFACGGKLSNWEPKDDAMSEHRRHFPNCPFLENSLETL
How it was run: as §1

[5] = biological target: cIAP2-BIR2 (Homo sapiens (Human), UniProt Q13489); experiment: BIR binding assay (FRET competition), cIAP2 BIR2
Sequence of cIAP2-BIR2 (Q13489 158-242): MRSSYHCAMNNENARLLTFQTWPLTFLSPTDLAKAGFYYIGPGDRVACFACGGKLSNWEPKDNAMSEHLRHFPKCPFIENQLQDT
How it was run: as §1

[6] = biological target: cIAP2-BIR3 (Homo sapiens (Human), UniProt Q13489); experiment: BIR binding assay (FRET competition), cIAP2 BIR3; details: for cIAP2 BIR3 vs BIR2 separation window: fold separation (FS) for cIAP2
Sequence of cIAP2-BIR3 (Q13489 238-349): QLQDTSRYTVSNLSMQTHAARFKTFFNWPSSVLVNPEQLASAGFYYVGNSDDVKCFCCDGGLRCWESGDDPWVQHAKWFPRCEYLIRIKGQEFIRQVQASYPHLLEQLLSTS

[7] = biological target: cIAP1-BIR3 (Homo sapiens (Human), UniProt Q13490); experiment: BIR binding assay (FRET competition), cIAP1 BIR3; details: for cIAP1 BIR3 vs BIR2 separation window: fold separation (FS) for cIAP1
Sequence of cIAP1-BIR3 (Q13490 253-363): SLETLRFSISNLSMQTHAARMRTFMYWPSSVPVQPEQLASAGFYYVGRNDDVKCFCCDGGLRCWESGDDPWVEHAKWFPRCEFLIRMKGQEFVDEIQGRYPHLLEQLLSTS
How it was run: as §1

[8] = FRET competition, read-out: XIAP BIR2 (pIC50) (converted)
[9] = FRET competition binding, read-out: XIAP BIR2 (pIC50) (converted)

| SMILES | EC50 [1] [µM] | IC50 [2] [µM] | XIAP BIR3 vs BIR2 separation window [2] | IC50 [3, 8] [µM] | IC50 [4] [µM] | IC50 [5] [µM] | IC50 [6] [µM] | cIAP2 BIR3 vs BIR2 separation window [6] | IC50 [7] [µM] | cIAP1 BIR3 vs BIR2 separation window [7] | XIAP BIR2 (pIC50) ([3]; FRET competition binding) | IC50 [3] [µM] | IC50 [3, 9] [µM] |
| --- | --- | --- | --- | --- | --- | --- | --- | --- | --- | --- | --- | --- | --- |
| C[C@@H]1CN(CC(=O)N2CC(C)(C)c3[nH]c(=O)c(Cc4ccc(F)cc4)cc32)[C@@H](CN2CCO[C@H](C(=O)NCC(C)(C)CNC(=O)[C@@H]3CN(C[C@H]4CN[C@H](C)CN4CC(=O)N4CC(C)(C)c5[nH]c(=O)c(Cc6ccc(F)cc6)cc54)CCO3)C2)CN1 [Compound 139, (2S,2′S)-N,N′-(2,2-dimethylpropane-1,3-diyl)bis(4-(((2R,5R)-1-(2-(6-(4-fluorobenzyl)-3,3-dimethyl-5-oxo-2,3,4,5-tetrahydro-1H-pyrrolo[3,2-b]pyridin-1-yl)-2-oxoethyl)-5-methylpiperazin-2-yl)methyl)morpholine-2-carboxamide)] | 0.0631 to 0.316 | 0.0316 to 0.501 | +++ (10,000>FS>1,000) | 10 to 51.3 | 1 to 3.16 | 1 to 3.16 | 0.00794 to 0.0158 | +++ (10,000>FS>1,000) | 0.00794 to 0.0158 | +++ (10,000>FS>1,000) |  |  |  |
| C[C@@H]1CN(CC(=O)N2CC(C)(C)c3ncc(Cc4ccc(F)cc4)cc32)[C@@H](CN2CCO[C@H](COc3cccc(OC[C@@H]4CN(C[C@H]5CN[C@H](C)CN5CC(=O)N5CC(C)(C)c6ncc(Cc7ccc(F)cc7)cc65)CCO4)c3)C2)CN1 [Compound 145] | 0.0126 to 0.0631 | 0.0316 to 0.501 | ++++ (FS>10,000) | 10 to 51.3 | 3.16 to 10 | 10 to 51.3 | 0.00794 to 0.0158 | +++ (10,000>FS>1,000) | 0.00794 to 0.0158 | +++ (10,000>FS>1,000) |  |  |  |
| C[C@@H]1CN(CC(=O)N2CC(C)(C)c3[nH]c(=O)c(Cc4ccc(F)cc4)cc32)[C@@H](CN2CCO[C@H](COc3ccc(-c4ccccc4)c(OC[C@@H]4CN(C[C@H]5CN[C@H](C)CN5CC(=O)N5CC(C)(C)c6[nH]c(=O)c(Cc7ccc(F)cc7)cc65)CCO4)c3)C2)CN1 [Example 78, 1,1′-(2,2′-((3R,3′R,6R,6′R)-(((2S,2'S)—(([1,1′-biphenyl]-2,4-diylbis(oxy))bis(methylene))bis(morpholine-2,4-diyl))bis(methylene))bis(3-methylpiperazine-6,1-diyl))bis(acetyl))bis(6-(4-fluorobenzyl)-3,3-dimethyl-1,2,3,4-tetrahydro-5H-pyrrolo[3,2-b]pyridin-5-one)] | 0.0126 to 0.0631 | 0.00794 to 0.0158 | +++ (10,000>FS>1,000) |  |  |  | 0.00138 to 0.00794 |  | 0.00138 to 0.00794 |  | ++ (5.00<pIC50<=5.50) |  |  |
| C[C@@H]1CN(CC(=O)N2CC(C)(C)c3[nH]c(=O)c(Cc4ccc(F)cc4)cc32)[C@@H](CN2CCO[C@H](COc3ccc(Oc4cccc(Oc5ccc(OC[C@@H]6CN(C[C@H]7CN[C@H](C)CN7CC(=O)N7CC(C)(C)c8[nH]c(=O)c(Cc9ccc(F)cc9)cc87)CCO6)cc5)c4)cc3)C2)CN1 [Example 60, 1,1′-(2,2′-((3R,3′R,6R,6′R)-(((2S,2'S)-((((1,3-phenylenebis(oxy))bis(4,1-phenylene))bis(oxy))bis(methylene))bis(morpholine-2,4-diyl))bis(methylene))bis(3-methylpiperazine-6,1-diyl))bis(acetyl))bis(6-(4-fluorobenzyl)-3,3-dimethyl-1,2,3,4-tetrahydro-5H-pyrrolo[3,2-b]pyridin-5-one)] | 0.0126 to 0.0631 | 0.0316 to 0.501 | ++++ (FS>10,000) |  |  | 10 to 51.3 | 0.0158 to 0.0316 | ++++ (FS>10,000) | 0.0316 to 0.501 |  |  | 10 to 51.3 |  |
| C[C@@H]1CN(CC(=O)N2CC(C)(C)c3[nH]c(=O)c(Cc4ccc(F)cc4)cc32)[C@@H](CN2CCO[C@H](COc3ccccc3Cc3ccccc3OC[C@@H]3CN(C[C@H]4CN[C@H](C)CN4CC(=O)N4CC(C)(C)c5[nH]c(=O)c(Cc6ccc(F)cc6)cc54)CCO3)C2)CN1 [Example 66, 1,1′-(2,2′-((3R,3′R,6R,6′R)-(((2S,2'S)-(((methylenebis(2,1-phenylene))bis(oxy))bis(methylene))bis(morpholine-2,4-diyl))bis(methylene))bis(3-methylpiperazine-6,1-diyl))bis(acetyl))bis(6-(4-fluorobenzyl)-3,3-dimethyl-1,2,3,4-tetrahydro-5H-pyrrolo[3,2-b]pyridin-5-one)] | 0.00049 to 0.0126 | 0.0158 to 0.0316 | ++++ (FS>10,000) |  |  |  | 0.00794 to 0.0158 |  | 0.0158 to 0.0316 |  |  |  | 10 to 51.3 |
| C[C@@H]1CN(CC(=O)N2CC(C)(C)c3ncc(Oc4ccc(F)cc4)cc32)[C@@H](CN2CCO[C@H](COc3cccc(OC[C@@H]4CN(C[C@H]5CN[C@H](C)CN5CC(=O)N5CC(C)(C)c6ncc(Oc7ccc(F)cc7)cc65)CCO4)c3)C2)CN1 [Compound 142, 1-[6-(4-fluorophenoxy)-3,3-dimethyl-2H-pyrrolo[3,2-b]pyridin-1-yl]-2-[(2R,5R)-2-[[(2S)-2-[[3-[[(2S)-4-[[(2R,5R)-1-[2-[6-(4-fluorophenoxy)-3,3-dimethyl-2H-pyrrolo[3,2-b]pyridin-1-yl]-2-oxo-ethyl]-5-methyl-piperazin-2-yl]methyl]morpholin-2-yl]methoxy]phenoxy]methyl]morpholin-4-yl]methyl]-5-methyl-piperazin-1-yl]ethanone] | 0.0126 to 0.0631 | 0.0316 to 0.501 | +++ (10,000>FS>1,000) | 10 to 51.3 | 10 to 51.3 |  | 0.0158 to 0.0316 |  | 0.0158 to 0.0316 | +++ (10,000>FS>1,000) |  |  |  |
| C[C@@H]1CN(CC(=O)N2CC(C)(C)c3[nH]c(=O)c(Cc4ccc(F)cc4)cc32)[C@@H](CN2CCC(C(F)(F)COc3cccc(OCC(F)(F)C4CCN(C[C@H]5CN[C@H](C)CN5CC(=O)N5CC(C)(C)c6[nH]c(=O)c(Cc7ccc(F)cc7)cc65)CC4)c3)CC2)CN1 [Example 110, 1,1′-(2,2′-((3R,3′R,6R,6′R)-((((1,3-phenylenebis(oxy))bis(1,1-difluoroethane-2,1-diyl))bis(piperidine-4,1-diyl))bis(methylene))bis(3-methylpiperazine-6,1-diyl))bis(acetyl))bis(6-(4-fluorobenzyl)-3,3-dimethyl-1,2,3,4-tetrahydro-5H-pyrrolo[3,2-b]pyridin-5-one)] | 0.00049 to 0.0126 | 0.0158 to 0.0316 | ++++ (FS>10,000) |  |  |  | 0.0158 to 0.0316 |  | 0.0158 to 0.0316 |  |  |  | 10 to 51.3 |
| C[C@@H]1CN(CC(=O)N2CC(C)(C)c3[nH]c(=O)c(Oc4ccc(Cl)cc4)cc32)[C@@H](CN2CCO[C@H](C(=O)NCc3ccc(CNC(=O)[C@@H]4CN(C[C@H]5CN[C@H](C)CN5CC(=O)N5CC(C)(C)c6[nH]c(=O)c(Oc7ccc(Cl)cc7)cc65)CCO4)cc3)C2)CN1 [Compound 182, (2S,2′S)-N,N′-(1,4-phenylenebis(methylene)) bis(4-(((2R,5R)-1-(2-(6-(4-chlorophenoxy)-3,3-dimethyl-5-oxo-2,3,4,5-tetrahydro-1H-pyrrolo[3,2-b]pyridin-1-yl)-2-oxoethyl)-5-methylpiperazin-2-yl)methyl)morpholine-2-carboxamide)] | 0.0631 to 0.316 | 0.0316 to 0.501 | +++ (10,000>FS>1,000) | 10 to 51.3 |  | 3.16 to 10 | 0.00138 to 0.00794 | +++ (10,000>FS>1,000) | 0.00794 to 0.0158 |  |  |  |  |
